Results as given in the OPERA property sets (Mansouri et al. 2018).
Values after ≈ are worked out from the molar mass of the structure shown.

Compound	solubility (20 °C) [mM]	solubility (25 °C) [mM]	other results
CC(=O)CC1=NCCS1	69.8 (≈ 10000 µg/mL)		
Cn1cnc2nc(Cl)nc(Cl)c21			solubility: 70.4 mM (≈ 14300 µg/mL)
COC(C)C(NC=O)C(=O)O (racemic)		242 (≈ 39000 µg/mL)	
COc1ccc(NC(=N)Nc2ccc(OC)cc2)cc1			solubility: 1.84 mM (≈ 500 µg/mL)
Cn1cnc2c1c(=O)n(CC(=O)O)c(=O)n2C		42 (≈ 10000 µg/mL)	
CSCCC(NC(C)=O)C(=O)O (racemic)		1070 (≈ 205000 µg/mL)	
CCCOC(=O)c1cccnc1		57.5 (≈ 9500 µg/mL)	
C[C@H]1NC(=O)[C@@H](C)NC1=O			solubility: 703 mM (≈ 100000 µg/mL)
O=[N+]([O-])c1cccc(CO)c1	3.85 (≈ 590 µg/mL)		
O=c1nccc[nH]1	4730 (≈ 455000 µg/mL)		
O=C(NC(=O)c1cccnc1)Nc1ccccc1		0.414 (≈ 100 µg/mL)	
Cn1cnc2c(=O)n(C)c(=O)n(C)c2c1=O	10.4 (≈ 2300 µg/mL)		
O=C(O)C(Br)=C(Br)I	95.6 (≈ 34000 µg/mL)		
CCCCCOC(=O)CCOCC		6.37 (≈ 1200 µg/mL)	
O=c1ccc(Br)ccc1O		0.274 (≈ 55 µg/mL)	
CC(=O)Nc1ccc(C)cc1F	18.2 (≈ 3040 µg/mL)		
NC(=O)NC(=O)C=CC(=O)O	12 (≈ 1900 µg/mL)		
CC(=O)c1cc(O)c(O)c(O)c1		33.8 (≈ 5680 µg/mL)	
NC(N)=Nc1nc2ccccc2s1	3.62 (≈ 696 µg/mL)		
CN1c2ccccc2Sc2ccccc21	0.00255 (≈ 0.544 µg/mL)		
CCOC(=O)C(C)=CC(=O)[O-]	94.2		
ClCCOCOCCCl	45.1 (≈ 7800 µg/mL)		

Compound	solubility (20 °C) [mM]	solubility (25 °C) [mM]	other results
CCNC(CC)C(=O)O (stereo unspecified)			solubility: 381 mM (≈ 50000 µg/mL)
CCCCCCCCCCCCNC(=O)c1cccnc1		0.62 (≈ 180 µg/mL)	
CC(C)C1OC(=O)c2ccccc21 (stereo unspecified)		5.54 (≈ 976 µg/mL)	
O=C(O)C(Cl)=C(Br)Br	205 (≈ 54300 µg/mL)		
CCSC(C(=O)O)c1ccccc1 (stereo unspecified)		27 (≈ 5300 µg/mL)	
CCCCCCCC(C(=O)O)C(=O)O		9.1 (≈ 1840 µg/mL)	
O=c1cc[nH]cn1	3850 (≈ 370000 µg/mL)		
CC=CCC1(C)C(=O)NC(=O)N(C)C1=O (stereo unspecified)	28.5 (≈ 6000 µg/mL)		
CC(=O)C(=Cc1ccccc1)CC(=O)O			solubility: 24.5 mM (≈ 5000 µg/mL)
CSc1ncnc2nccnc12	4.32 (≈ 769 µg/mL)		
CCCCCCCCCOC(=O)c1cccnc1		0.802 (≈ 200 µg/mL)	
O=[N+]([O-])c1cc([N+](=O)[O-])c(-c2ccccc2)cc1O		0.0346 (≈ 9 µg/mL)	
COS(=O)(=O)c1ccccc1		18.1 (≈ 3120 µg/mL)	
CC(C)C1OCC2(CO1)COC(C(C)C)OC2 (stereo unspecified)		0.769 (≈ 188 µg/mL)	
CN1C(=O)C(N)C(=S)N(C)C1=O (stereo unspecified)			solubility: 76.4 mM (≈ 14300 µg/mL)
CN(C)C1CCC=CCCC1 (stereo unspecified)			solubility: 25.1 mM (≈ 3850 µg/mL)
NC(=O)c1ccc(S(N)(=O)=O)cc1		4.99 (≈ 1000 µg/mL)	
CCCCCCOC(=O)CCOCC		1.48 (≈ 300 µg/mL)	
CCCOCCC(=O)OC		233 (≈ 34000 µg/mL)	
CCCCN(C(N)=O)c1ccccc1		50.5 (≈ 9700 µg/mL)	
Cc1ccc(NO)cc1			solubility: 162 mM (≈ 20000 µg/mL)
c1ccc(-c2cccnc2)nc1		256 (≈ 40000 µg/mL)	

Compound	solubility (20 °C) [mM]	solubility (25 °C) [mM]	other results
O=Cc1ccc(O)c(C(=O)O)c1		2.32 (≈ 385 µg/mL)	
CCc1nc2cnc(O)nc2nc1CC	5.44 (≈ 1110 µg/mL)		
COC(=O)OC(C)C(=O)OC (stereo unspecified)		251 (≈ 40700 µg/mL)	
O=C(CCCCC(=O)NCCO)NCCO	2580 (≈ 600000 µg/mL)		
Cc1cc(C(O)(c2ccc(N)cc2)c2ccc(N)cc2)ccc1N	0.939 (≈ 300 µg/mL)		
O=C(O)c1ccccc1C(=O)c1ccc(Cl)cc1	1.92 (≈ 500 µg/mL)		
O=C(O)CC1(CC(=O)O)OCOC1=O			solubility: 245 mM (≈ 50000 µg/mL)
Cc1ccc(P(=O)(O)O)c(C)c1	80.6 (≈ 15000 µg/mL)		
NC(=O)NN=C1CCCCC1	38.7 (≈ 6000 µg/mL)		
O=S(=O)(CCCl)CCS(=O)(=O)CCCl			solubility (30 °C): 35.6 mM (≈ 10100 µg/mL)
Cc1cc(C)c(C)cn1		165 (≈ 20000 µg/mL)	
O=c1[nH]c2cncnc2[nH]1	30.6 (≈ 4170 µg/mL)		
OCc1ccc(Cl)cc1	17.5 (≈ 2500 µg/mL)		
C=CC(O)C(=O)OCC (stereo unspecified)			solubility: 2310 mM (≈ 300000 µg/mL)
CC1CCCC(=NO)C1=NO (stereo unspecified)		25.6 (≈ 4000 µg/mL)	
O=C(O)c1c(O)ccc2ccccc12		0.744 (≈ 140 µg/mL)	
Oc1ncncc1Br			solubility: 357 mM (≈ 62500 µg/mL)
O=C(O)C1CCNCC1C(=O)O (stereo unspecified)			solubility: 289 mM (≈ 50000 µg/mL)
O=C(O)CCC(=O)c1cccc2ccccc12		0.329 (≈ 75 µg/mL)	
C=CCC(C(=O)O)C(C)C(=O)O (stereo unspecified)	87.1 (≈ 15000 µg/mL)		
CC1CCC2(CCC(C)O2)O1 (stereo unspecified)	356 (≈ 55600 µg/mL)		
N#Cc1c(O)cc(Cl)[nH]c1=O	58.6 (≈ 10000 µg/mL)		

Compound	solubility (20 °C) [mM]	solubility (25 °C) [mM]	other results
Cc1nc2cncnc2n(C)c1=O	32.4 (≈ 5710 µg/mL)		
CCC1OC(=O)c2cc([N+](=O)[O-])ccc21 (stereo unspecified)		2.82 (≈ 584 µg/mL)	
Cc1cc(C)cc(OCC(=O)O)c1	4.44 (≈ 800 µg/mL)		
CCOC(=O)N(C)CC			solubility: 381 mM (≈ 50000 µg/mL)
CC(O)(CCl)CCl	657 (≈ 94000 µg/mL)		
O=C(S)CCCCC(=O)S			solubility (26 °C): 18.5 mM (≈ 3300 µg/mL)
CC(=O)N[C@@H](Cc1c[nH]c2ccccc12)C(=O)O (racemic)			solubility (21 °C): 4.87 mM (≈ 1200 µg/mL)
CC(C)(NC(N)=O)C(=O)O	68.4 (≈ 10000 µg/mL)		
CCC(C)[C@@H](NC(C)=O)C(=O)O (mixture of isomers)		177	
CCN(CC)C(=O)N(CC)CC			solubility: 232 mM (≈ 40000 µg/mL)
CCCCOc1cc(C(=O)NCCN(CC)CC)c2ccccc2n1			solubility (21 °C): 0.122 mM (≈ 42 µg/mL)
CC(=O)OC(C)C#N (stereo unspecified)			solubility: 1770 mM (≈ 200000 µg/mL)
C[Si](C)(O)O[Si](C)(C)O		661 (≈ 110000 µg/mL)	
O=C(O)CCCCc1ccccc1		3.42 (≈ 610 µg/mL)	
COc1cc(Br)c2c(c1OC)C(=O)OC2		0.117 (≈ 32 µg/mL)	
CCCCCCCCOC(=O)c1cccnc1		0.807 (≈ 190 µg/mL)	
c1ccc(CNCCNCc2ccccc2)cc1			solubility (24 °C): 16.3 mM (≈ 3930 µg/mL)
Sc1nnc(S)s1	176 (≈ 26400 µg/mL)		
CCCc1nc(N)c(CC)c(CCC)n1			solubility (23 °C): 3.07 mM (≈ 636 µg/mL)
CC1(c2ccccc2)C(=O)NC(=O)NC1=O	3.48 (≈ 760 µg/mL)		
